Measured values: patent publication US4148919A, “7-Amino-6,7-dihydro [5H]benzocycloheptene derivatives” (Roussel Uclaf, priority 1975, dated 1979)

Assays:
serotonine (5HT) uptake [1] = assay: Inhibition of Serotonine uptake in vivo (synaptosomes from treated rats); parameters: species or system rat; key: the activity was expressed in increasing number of + signs; conditions: 20 mg/kg intraperitoneal, female rats, brain removed after 30 minutes
Description: (§1) The inhibition of serotonine (5HT) uptake was measured in impure synaptosomes prepared from the entire brain of a female rat 19 to 21 days old using the technique of Kannengiesser et al. [Biochemical Pharmacology,Vol. 22, (1973) p. 73].
The tested products were intraperitoneally administered to groups of female rats 19 to 21 days old at doses of 5 to 20 mg/kg. After 30 minutes, the brain was removed and synaptosomes were prepared and placed in an incubator in the presence of 14 C-5HT as indicated in the previous test.

mice [2] = assay: Acute toxicity; format: in vivo; conditions: intraperitoneal administration, determined 48 hours later
Description: The DL50 dose which kills 50% of mice after intraperitoneal administration of the tested compound was determined 48 hours later and the DL50 for the compound of Example 1 was about 75 mg/kg.

mice [3] = assay: Potentiation of effects of L-dopa in iproniazide-pretreated mice; format: in vivo; conditions: male mice, intraperitoneal, iproniazide 75 mg/kg 18 hours before, L-dopa 100 mg/kg i.p. one hour after product; 60 min
Description: The administration of L-dopa to mice pretreated 18 hours previously with iproniazide produced certain number of symptoms; muscular hypertonicity, hyperactivity, agitation, crying, aggressiveness, salivation and exophthalmy. The intensity of these effects is potentiated by administration of an antidepressant one hour before the administration of L-dopa. Male mices received intraperitoneally 75 mg/kg of iproniazide 18 hours before the start of the test and the tested product was intraperitoneally administered in aqueous solution in increasing doses. One hour later, L-dopa was intraperitoneally administered at a dose of 100 mg/kg and the different symptoms were observed 15 and 30 minutes later. They were evaluated on a scale of 0 to 3 for each animal and the totals for each dose were determined. The ED50 dose which potentiates by 50% the L-dopa effects was determined to be about 20 mg/kg for the product of Example 1.

serotonine (5HT) uptake [4] = assay: Inhibition of Serotonine uptake in vitro (impure brain synaptosomes); format: biochemical; conditions: female rat brain synaptosomes, 37° C. 5 minutes, 14C-5HT 10^-7 M
Description: as §1

mice [5] = assay: Potentialization of effects of monoamine oxidase inhibitor (nialamide hyperactivity, actimetry); format: in vivo; parameters: key: ++: expressed in increasing number of + signs for a determined dose in mg/kg; +++: expressed in increasing number of + signs for a determined dose in mg/kg; conditions: 30 minutes after nialamide 100 mg/kg i.p., actimetry for 6 hours
Description: The administration of a monoamine oxidase inhibitor to mice induces a hyperactive movement of the animals which is able to be potentialized by an antidepressant. Using the procedure of Carlsson et al. [Brain Research, Vol. 12 (1969), p. 456], a dose of 100 mg/kg of nialamide was intraperitoneally administered to mice 30 minutes before the intraperitoneal administration of the tested product and the values of actimetric measurements were recorded every 30 minutes for 6 hours. Potentiation of the effects of nialamide for the tested product was expressed in increasing number of + signs for a determined dose in mg/kg.

Substance: 7-amino-6,7-dihydro [5H] benzocycloheptene-hydrochloride [Example 1]
- Relative power to inhibit the uptake of 14C-5HT (serotonine (5HT) uptake [1]): +
- DL50 dose which kills 50% of mice (mice [2]): about 75 mg/kg
- ED50 dose which potentiates by 50% the L-dopa effects (mice [3]): about 20 mg/kg
- IC50 (serotonine (5HT) uptake [4]): ~2.4 µM
- Potentiation of the effects of nialamide (mice [5]; 5 mg/kg intraperitoneal): ++
- Potentiation of the effects of nialamide (mice [5]; 20 mg/kg intraperitoneal): +++
